Measurements: ChEMBL document CHEMBL5247589, “Natural occurrence, bioactivity, and biosynthesis of triene-ansamycins” (Eur J Med Chem, 2022)
≈ marks a conversion by molar mass, not a printed value.

Tests used:
[1] = Antiproliferative activity against human U87 cells overexpressing miR-9 assessed as cell viability incubated for 48 hrs by Cell Counting Kit-8 assay; assay type: functional, cell-based, U-87MG ATCC; settings: U-87 MG
PC-3 [2] = assay: Cytotoxicity against human PC-3 cells incubated for 48 hrs by CCK-8 assay; assay type: functional, cell-based; settings: PC-3, 48 h
HepG2 [3] = assay: Antiproliferative activity against human HepG2 cells assessed as cell viability incubated for 48 hrs by Cell Counting Kit-8 assay; assay type: functional, cell-based; settings: HepG2, 48 h
PC-3 [4] = assay: Antiproliferative activity against human PC3 cells assessed as cell viability incubated for 48 hrs by Cell Counting Kit-8 assay; assay type: functional, cell-based; settings: PC-3, 48 h
HepG2 [5] = assay: Cytotoxicity against human HepG2 cells incubated for 48 hrs by CCK-8 assay; assay type: functional, cell-based; settings: HepG2, 48 h
HL-60 [6] = assay: Induction of apoptosis in human HL-60 cells assessed as effective dose; assay type: functional; settings: read-out: ED50 (the source's name)
HL-60 [7] = assay: Antitumor activity against human HL60 cells assessed as cell growth incubated for 1 day by MTT assay; assay type: functional, cell-based; settings: HL-60, 24 h
[8] = Cytotoxicity against human WI-38 cells assessed as cell growth incubated for 1 day by MTT assay; assay type: toxicity, cell-based
Capan-2 = assay: Antitumor activity against human Capan-2 cells incubated for 48 to 72 hrs by MTS Assay; assay type: functional, cell-based
HepG2 [9] = assay: Antitumor activity against human HepG2 cells incubated for 72 hrs by SRB calorimetric assay; assay type: functional, cell-based; settings: HepG2, 72 h
PC-3 [10] = assay: Antitumor activity against human PC-3 cells incubated for 72 hrs by SRB calorimetric assay; assay type: functional, cell-based; settings: PC-3, 72 h
PANC-1 [11] = assay: Antitumor activity against human PANC-1 cells incubated for 48 to 72 hrs by MTS Assay; assay type: functional, cell-based
BXPC-3 = assay: Antitumor activity against human BXPC-3 cells incubated for 48 to 72 hrs by MTS Assay; assay type: functional, cell-based
[12] = Inhibition of bovine brain FTase; design: species or system Bos taurus
A549 [13] = assay: Antitumor activity against human A549 cells incubated for 72 hrs by MTT assay; assay type: functional, cell-based; settings: A549, 72 h
MCF7 = assay: Antitumor activity against human MCF7 cells incubated for 72 hrs by MTT assay; assay type: functional, cell-based; settings: MCF7, 72 h
K562 [14] = assay: Antitumor activity against human K562 cells incubated for 24 hrs by CCK-8 assay; assay type: functional, cell-based; settings: K562, 24 h
L5178Y [15] = assay: Cytotoxicity against mouse L5178Y; assay type: toxicity, cell-based
Cyberlindnera jadinii = assay: Antifungal activity against Cyberlindnera jadinii IFO 0396 assessed as inhibition of fungal growth incubated for 72 hrs by broth dilution method; assay type: functional; settings: Williopsis jadinii
L5178Y [16] = assay: Cytotoxicity against mouse L5178Y cells; assay type: functional
Pichia kudriavzevii = assay: Antifungal activity against Pichia kudriavzevii IFO 0590 assessed as inhibition of fungal growth incubated for 72 hrs by broth dilution method; assay type: functional
Rhizomucor pusillus = assay: Antifungal activity against Rhizomucor pusillus IAM 6122 assessed as inhibition of fungal growth incubated for 72 hrs by broth dilution method; assay type: functional
Rhizopus delemar = assay: Antifungal activity against Rhizopus delemar IAM 6015 assessed as inhibition of fungal growth incubated for 72 hrs by broth dilution method; assay type: functional
[17] = Toxicity in CDF1 mouse allografted with mouse […] cells assessed as lethal dose administered for 6 days ,ip; assay type: cell-based; settings: in vivo, time 6 day
Saccharomyces cerevisiae = assay: Antifungal activity against Saccharomyces cerevisiae IFO 0304 assessed as inhibition of fungal growth incubated for 72 hrs by broth dilution method; assay type: functional
Aspergillus japonicus = assay: Antifungal activity against Aspergillus japonicus IAM 2016 assessed as inhibition of fungal growth incubated for 72 hrs by broth dilution method; assay type: functional
Penicillium chrysogenum = assay: Antifungal activity against Penicillium chrysogenum1AM 7106 assessed as inhibition of fungal growth incubated for 72 hrs by broth dilution method; assay type: functional; settings: 1AM 7106
A549 [18] = assay: Cytotoxicity against human A549 cells incubated for 72 hrs by MTT assay; assay type: functional, cell-based; settings: A549, 72 h
K562 [19] = assay: Cytotoxicity against human K562 cells incubated for 24 hrs by CCK-8 assay; assay type: functional, cell-based; settings: K562, 24 h
HCT-116 = assay: Antitumor activity against human HCT116 cells; assay type: functional, cell-based
HL-60 [20] = assay: Antitumor activity against human HL60 cells; assay type: functional, cell-based
HT-29 = assay: Antitumor activity against human HT29 cells; assay type: functional, cell-based
U-937 = assay: Antitumor activity against human U937 cells; assay type: functional, cell-based
HeLa [21] = assay: Antitumor activity against human HeLa cells; assay type: functional, cell-based
THP-1 = assay: Antitumor activity against human THP1 cells; assay type: functional, cell-based
B16 = assay: Antitumor activity against mouse B-16 cells; assay type: functional, cell-based
PANC-1 [22] = assay: Antitumor activity against human PANC-1; assay type: functional, cell-based; settings: pooled result: one value given for 3 cell lines, strains, targets or settings
[23] = Cytotoxicity against human HaCaT cells incubated for 48 to 72 hrs by MTS assay; assay type: toxicity, cell-based
BV-2 = assay: Cytotoxicity against LPS stimulated mouse BV-2 cells by MTS assay; assay type: functional, cell-based
[24] = Cytotoxicity against human HAF cells; assay type: toxicity, cell-based, Fibroblast; settings: HAF cells (fibroblasts)
[25] = Cytotoxicity against mouse C2C12 cells; assay type: toxicity, cell-based
[26] = Cytotoxicity against mouse C2C12 cells incubated for 48 to 72 hrs by MTS assay; assay type: toxicity, cell-based
PLC = assay: Antitumor activity against human PLC cells incubated for 72 hrs by hemocytometer; assay type: functional, cell-based
HeLa [27] = assay: Antitumor activity against human HeLa cells incubated for 72 hrs by hemocytometer; assay type: functional, cell-based
[28] = Cytotoxicity against human HAF cells incubated for 48 to 72 hrs by MTS assay; assay type: toxicity, cell-based, Fibroblast; settings: HAF cells (fibroblasts)
[29] = Cytotoxicity against human HaCaT cells; assay type: toxicity, cell-based
[30] = Inhibition of NO production in LPS stimulated mouse BV-2 cells measured after 24 hrs; assay type: functional, cell-based; settings: BV-2, 24 h

CO[C@H]1/C=C/C=C/C=C/C[C@H](OC(=O)[C@@H](C)NC(=O)C2CCCCC2)[C@H](C)[C@@H](O[C@@H]2O[C@H](CO)[C@@H](O)[C@H](O)[C@H]2O)/C(C)=C\CCc2cc(O)cc(c2O)NC(=O)C1
IC50 [1]: ≥ 2020 nM | IC50 (PC-3 [2]): 4380 nM | IC50 (HepG2 [3]): ≥ 2020 nM | IC50 (PC-3 [4]): ≥ 2020 nM | IC50 (HepG2 [5]): 2200 nM

CO[C@H]1/C=C/C=C/C=C/C[C@H](OC(=O)C2(NC(=O)C3CCCCC3)CC2)[C@H](C)[C@@H](O)/C(C)=C\CCc2cc(O)cc(c2O)NC(=O)C1
EC50 (HL-60 [6]): 7700 nM | IC50 (HL-60 [7]): 7.7 nM | IC50 at 1 day [8]: 7.7 nM

CO[C@H]1/C=C/C=C/C=C/C[C@H](O)[C@H](C)[C@@H](OC(=O)[C@@H](C)NC(=O)C(C)C)/C(C)=C\CCc2cc(O)cc(c2)NC(=O)C1
IC50 (Capan-2): > 10000 nM | IC50 (HepG2 [9]): > 10000 nM | IC50 (PC-3 [10]): > 10000 nM | IC50 (PANC-1 [11]): > 10000 nM | IC50 (BXPC-3): > 10000 nM

C/C=C(\C)C(=O)N[C@H](C)C(=O)O[C@H]1C/C=C/C=C/C=C/[C@H](OC)CC(=O)Nc2cc(O)cc(c2O)CC/C=C(/C)[C@H](O)[C@H]1C
IC50 [12]: 0.6 µg/mL (≈ 0.982 µM)

CO[C@H]1/C=C/C=C/C=C/C[C@H](O)[C@H](C)[C@@H](O)/C(C)=C\CCc2cc(O)cc(c2)NC(=O)C1
IC50 (A549 [13]): > 10000 nM | IC50 (MCF7): > 10000 nM | IC50 (K562 [14]): > 10000 nM

CO[C@H]1/C=C/C=C/C=C/C[C@H](OC(=O)[C@@H](C)NC(=O)C2CCCCC2)[C@H](C)[C@@H](O)/C(C)=C\CCC2=CC(=O)C=C(NC(=O)C1)C2=O
MIC (L5178Y [15]): 1.25 µM (≈ 0.796 µg/mL) | MIC (Cyberlindnera jadinii): 4 µg/mL (≈ 6.28 µM) | MIC (L5178Y [16]): 0.11 µg/mL (≈ 0.173 µM) | MIC (Pichia kudriavzevii): 4 µg/mL (≈ 6.28 µM) | MIC (Rhizomucor pusillus): 4 µg/mL (≈ 6.28 µM) | MIC (Rhizopus delemar): 4 µg/mL (≈ 6.28 µM) | LD50 at 144 h [17]: 56 mg/kg | MIC (Saccharomyces cerevisiae): 4 µg/mL (≈ 6.28 µM) | MIC (Aspergillus japonicus): 4 µg/mL (≈ 6.28 µM) | MIC (Penicillium chrysogenum): 4 µg/mL (≈ 6.28 µM)

CO[C@H]1/C=C/C=C/C=C/C[C@H](OC(=O)[C@@H](C)NC(C)=O)[C@H](C)[C@@H](O)/C(C)=C\CCc2cc(O)cc(c2)NC(=O)C1
IC50 (A549 [18]): 15000 nM | IC50 (K562 [19]): 23000 nM | IC50 (A549 [13]): > 10000 nM | IC50 (MCF7): > 10000 nM | IC50 (K562 [14]): > 10000 nM

CO[C@H]1/C=C/C=C/C=C/C[C@H](OC(=O)C2(NC(=O)C3=CCCCC3)CC2)[C@H](C)[C@@H](O)/C(C)=C\CCc2cc3c(c(c2O)NC(=O)C1)SCC(=O)N3
IC50 (HCT-116): 50 nM | IC50 (HL-60 [20]): 50 nM | IC50 (HT-29): 50 nM | IC50 (U-937): 50 nM | IC50 (HeLa [21]): 50 nM | IC50 (THP-1): 50 nM | IC50 (B16): 50 nM

CO[C@H]1/C=C/C=C/C=C/C[C@H](OC(=O)[C@@H](C)NC(=O)C2CCCCC2)[C@H](C)[C@@H](O)/C(C)=C\CCc2cc(O)cc(c2O)NC(=O)C1
MIC (Cyberlindnera jadinii): 4 µg/mL (≈ 6.26 µM) | MIC (L5178Y [16]): 0.11 µg/mL (≈ 0.172 µM) | MIC (Pichia kudriavzevii): 4 µg/mL (≈ 6.26 µM) | MIC (Rhizomucor pusillus): 4 µg/mL (≈ 6.26 µM) | MIC (Rhizopus delemar): 4 µg/mL (≈ 6.26 µM) | LD50 at 144 h [17]: 80 mg/kg | MIC (Saccharomyces cerevisiae): 4 µg/mL (≈ 6.26 µM) | MIC (Aspergillus japonicus): 4 µg/mL (≈ 6.26 µM) | MIC (Penicillium chrysogenum): 4 µg/mL (≈ 6.26 µM)

CO[C@H]1/C=C/C=C/C=C/C[C@H](OC(=O)[C@@H](C)NC(=O)C2CCCCC2)[C@H](C)[C@@H](O)/C(C)=C\CCc2cc(O)cc(c2)NC(=O)C1 [TRIENOMYCIN A]
IC50 (PANC-1 [22]): 8 nM | IC50 [23]: > 10000 nM | IC50 (BV-2): 8 nM | IC50 [24]: 8 nM | IC50 [25]: 8 nM | IC50 [26]: > 10000 nM | IC50 (PLC): 8 nM | IC50 (HeLa [27]): 8 nM | IC50 [28]: > 10000 nM | IC50 [29]: 8 nM | EC50 [30]: 25.4 nM
